According to patent US20090123979A1, “Methods of reducing the inhibitory effect of a tannin on the enzymatic hydrolysis of cellulosic material” (Novozymes, Inc., priority 2007, published 2009):
Read-outs that look alike come from different tables or passages of the source.

Legend:
[1] = molecular target: T1, Trichoderma reesei CEL6A cellobiohydrolase II (Trichoderma reesei, UniProt P07987, P359R); experiment: PASC hydrolysis by CEL6A cellobiohydrolase II with tannic acid; assay type: biochemical; conditions: 1 mM tannic acid; 2 g PASC per liter, over 4 hours
T1 construct: made in house; host or cells: Fusarium venenatum
T1 sequence (P07987 25-471 P359R): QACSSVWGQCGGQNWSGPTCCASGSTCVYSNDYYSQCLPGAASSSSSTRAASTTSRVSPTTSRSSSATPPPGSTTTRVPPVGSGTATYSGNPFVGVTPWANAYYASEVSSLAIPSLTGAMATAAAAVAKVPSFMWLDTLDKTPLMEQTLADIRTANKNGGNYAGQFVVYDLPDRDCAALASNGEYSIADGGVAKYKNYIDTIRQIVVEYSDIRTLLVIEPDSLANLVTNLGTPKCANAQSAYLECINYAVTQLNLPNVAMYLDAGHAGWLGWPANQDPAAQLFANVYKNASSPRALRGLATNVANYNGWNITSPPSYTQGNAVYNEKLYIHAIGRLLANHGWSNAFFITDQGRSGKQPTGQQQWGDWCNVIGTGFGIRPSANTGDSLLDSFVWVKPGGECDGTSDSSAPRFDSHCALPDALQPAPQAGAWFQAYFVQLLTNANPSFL
Procedure: The inhibitory effect of tannic acid was determined on Trichoderma reesei CEL7A cellobiohydrolase 1, Trichoderma reesei CEL6A cellobiohydrolase II, Trichoderma reesei CEL7B endoglucanase 1, and Trichoderma reesei CEL5A endoglucanase II using PASC as substrate.

[2] = molecular target: T2, Aspergillus oryzae CEL3A beta-glucosidase (Aspergillus oryzae, UniProt Q2UUD6); experiment: Cellobiose hydrolysis by CEL3A beta-glucosidase with tannic acid; assay type: biochemical
T2 construct: made in house
T2 sequence (Q2UUD6 20-861): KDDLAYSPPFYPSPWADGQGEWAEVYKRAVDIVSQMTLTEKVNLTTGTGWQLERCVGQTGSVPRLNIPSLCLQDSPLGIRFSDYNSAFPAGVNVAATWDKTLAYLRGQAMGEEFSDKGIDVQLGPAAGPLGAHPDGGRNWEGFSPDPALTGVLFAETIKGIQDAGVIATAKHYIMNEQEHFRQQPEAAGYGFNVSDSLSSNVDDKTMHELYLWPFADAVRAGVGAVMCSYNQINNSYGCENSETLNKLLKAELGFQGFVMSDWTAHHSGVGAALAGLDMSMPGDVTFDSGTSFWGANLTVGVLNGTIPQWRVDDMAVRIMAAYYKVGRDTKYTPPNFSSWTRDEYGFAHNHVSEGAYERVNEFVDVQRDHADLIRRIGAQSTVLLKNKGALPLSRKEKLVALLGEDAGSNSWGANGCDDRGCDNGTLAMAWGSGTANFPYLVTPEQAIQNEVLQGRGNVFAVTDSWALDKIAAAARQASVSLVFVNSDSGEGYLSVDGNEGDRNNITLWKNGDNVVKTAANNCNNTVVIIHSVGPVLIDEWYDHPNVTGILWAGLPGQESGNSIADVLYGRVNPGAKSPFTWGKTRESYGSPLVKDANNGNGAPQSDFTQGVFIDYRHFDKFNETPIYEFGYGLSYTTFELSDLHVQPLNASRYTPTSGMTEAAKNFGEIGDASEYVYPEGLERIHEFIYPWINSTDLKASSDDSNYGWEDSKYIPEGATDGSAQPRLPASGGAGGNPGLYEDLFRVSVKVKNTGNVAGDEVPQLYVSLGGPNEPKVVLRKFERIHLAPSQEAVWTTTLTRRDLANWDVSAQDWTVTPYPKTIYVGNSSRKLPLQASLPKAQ
Procedure: The effect of tannic acid on Aspergillus oryzae CEL3A beta-glucosidase was also evaluated using a series of “mini-scale” hydrolysis reactions according to the procedure described in Example 30, except that 1 mM tannic acid (corresponding to 10 mM galloyl and 1 mM glucosyl constituents) and 2 g of cellobiose and 1 mg of beta-glucosidase per liter of 39 mM sodium acetate pH 5.0 were used. Reactions without the addition of the tannic acid served as controls. The reaction was monitored by HPLC as described in Example 30.
Tannic acid was also evaluated in the hydrolysis of cellobiose.

[3] = molecular target: T3, Cellulolytic Enzyme Composition #2; experiment: PCS hydrolysis by Cellulolytic Enzyme Composition #2 with added compounds; assay type: biochemical, Trichoderma reesei; conditions: for Ki: PCS hydrolysis, Cellulolytic Enzyme Composition #2
T3 construct: Dixon plot linear regression intercept (1/Rate); other: PCS; rate from hydrolysis difference (%) at 0 and 5 hours; rate from hydrolysis difference (%); Ki (x-intercept of Dixon plot); other: PCS hydrolysis, Cellulolytic Enzyme Composition #2; OPC flavonol-equivalent; Ki expressed as galloyl constituents; oth; fused on or other part: In one component the Humicola insolens endoglucanase V (CEL45A) core is fused in front of the A. oryzae beta-glucosidase
Procedure: Corn stover was pretreated at the U.S. Department of Energy National Renewable Energy Laboratory (NREL), […], Colo., USA, using dilute sulfuric acid. The following conditions were used for the pretreatment: 1.4 wt % sulfuric acid at 195° C. for 4.5 minutes. According to limit digestion with excess cellulase enzymes, the water-insoluble solids in the pretreated corn stover (PCS) contained 59.5% cellulose. Prior to use, the PCS was washed with a large volume of deionized water until soluble acid and sugars were removed. The dry weight of the water-washed PCS was 19.16%.
The effect of a mixture of tannic acid, ellagic acid, epicatechin, and six lignin constituent compounds (4-hydroxyl-2-methylbenzoic acid, vanillin, coniferyl alcohol, coniferyl aldehyde, ferulic acid, and syringaldehyde) was determined on the hydrolysis of PCS by Cellulolytic Enzyme Composition #1 or Cellulolytic Enzyme Composition #2. […] Cellulolytic Enzyme Composition #1 or Cellulolytic Enzyme Composition #2 was added at 0.25 g per liter. Reactions without the addition of the compounds served as controls. The capped tubes were incubated at 50° C. in an INNOVA® 4080 incubator shaker (New Brunswick Scientific Co., Inc., Edison, N.J., USA) at 150 rpm.
Aliquots of the suspensions, sampled over time, were filtered by centrifugation using a 0.45 μm MULTISCREEN® HV membrane (Millipore, Billerica, Mass., USA) at 2000 rpm for 15 minutes using a SORVALL® RT7 centrifuge (Thermo Fisher Scientific, Waltham, Mass., USA). When not used immediately, the filtered aliquots were frozen at −20° C. Sugar concentrations of the samples diluted in 0.005 M H2SO4 were measured after elution by 0.005 M H2SO4 at a flow rate of 0.4 ml/minute from a 4.6×250 mm AMINEX® HPX-87H column (Bio-Rad, Hercules, Calif., USA) at 65° C. with quantitation by integration of glucose and cellobiose using refractive index detection (CHEMSTATION®, AGILENT® 1100 HPLC, Agilent Technologies, Santa Clara, Calif., USA) calibrated with standards of glucose and cellobiose. The resultant equivalents were used to calculate the percentage of cellulose conversion for each reaction.
The degree of cellulose conversion to glucose plus cellobiose sugars (conversion, %) was calculated using the following equation:
Conversion(%)=(glucose+cellobiose×1.053)(mg/ml)×100×162/cellulose(mg/ml)×180)=(glucose+cellobiose×1.053)(mg/ml)×100/(cellulose(mg/ml)×1.111)
In this equation the factor 1.111 reflects the weight gain in converting cellulose to glucose, and the factor 1.053 reflects the weight gain in converting cellobiose to glucose. Cellulose in PCS was determined by a limit digest of PCS to release glucose and cellobiose.
Example 30 was repeated except that each compound was tested separately. […] Reactions without the addition of each compound served as controls.
The effect of OPC or flavonol on the hydrolysis of PCS by Cellulolytic Enzyme Composition #1 or Cellulolytic Enzyme Composition #2 was determined according to the procedure described in Example 30. OPC and flavonol were present at a concentration of 1 mM. Reactions without the addition of the compounds served as controls.
The effective inhibitory concentration range for tannic acid and OPC was also determined by the “mini-scale” hydrolysis described in Example 30 with Cellulolytic Enzyme Composition #2. The concentration of tannic acid ranged from 0.1 mM to 1 mM, while the concentration of OPC ranged from 0.1 mM to 10 mM. Reactions without the addition of the tannic compounds served as controls.
However, prior to the addition of Cellulolytic Enzyme Composition #2, the mixture of PCS or OPC and tannic acid was treated with Aspergillus oryzae tannase (Novozymes A/S, Bagsværd, Denmark) at 10% of the final protein level for 30 minutes. Reactions without addition of the tannic acid, OPC, or tannase served as controls.

[4] = system: Cellulolytic Enzyme Composition #1; experiment: AVICEL hydrolysis by Cellulolytic Enzyme Composition #1 with added compounds; assay type: biochemical, Trichoderma reesei; conditions: AVICEL pre-incubated with 1 mM tannic acid 1 hour at 50° C., then washed
Description: Initial hydrolysis rates were obtained from the first two hydrolysis time points (i.e., soluble sugar measurements) (with <20% hydrolysis extent in general, rate=(hydrolysis difference)/(time difference)). Double-reciprocal plots (1/(initial rate) vs 1/[cellulose] as function of tannic acid concentration) indicated a “mixed” type inhibition, but their complexity prevented extraction of simple inhibitor constants. Initial rate vs tannic acid concentration yielded an I50 (inhibitor concentration leading to 50% loss of hydrolysis rate) of 0.2±0.1 or 0.27±0.07 mM on PASC or AVICEL® hydrolysis, respectively
To examine where tannic acid exerted its inhibition, a series of hydrolysis reactions of AVICEL® by Cellulolytic Enzyme Composition #1 was performed in which AVICEL® and Cellulolytic Enzyme Composition #1 were used fresh or after pre-incubation with tannic acid. […] (with detectable precipitation seen), the pre-incubated Cellulolytic Enzyme Composition #1 was gel-filtered using BioSpin 6 desalting columns (Bio-Rad, Hercules, Calif., USA). […] Hydrolysis of untreated or buffer-only pre-incubated AVICEL® and Cellulolytic Enzyme Composition #1, with or without inhibitors, served as controls.

[5] = PCS, rate from hydrolysis difference (%) at 0 and 5 hours

O=C(OC[C@H]1O[C@@H](OC(=O)c2cc(O)c(O)c(OC(=O)c3cc(O)c(O)c(O)c3)c2)[C@H](OC(=O)c2cc(O)c(O)c(OC(=O)c3cc(O)c(O)c(O)c3)c2)[C@@H](OC(=O)c2cc(O)c(O)c(OC(=O)c3cc(O)c(O)c(O)c3)c2)[C@@H]1OC(=O)c1cc(O)c(O)c(OC(=O)c2cc(O)c(O)c(O)c2)c1)c1cc(O)c(O)c(OC(=O)c2cc(O)c(O)c(O)c2)c1 [tannic acid, Tannic acid]
effect on PASC hydrolysis by CEL6A cellobiohydrolase II [1]: significantly inhibited | effect on cellobiose hydrolysis by CEL3A beta-glucosidase ([2]; 1 mM tannic acid, 2 g cellobiose and 1 mg beta-glucosidase per liter): significantly inhibited | type of inhibition, CEL3A beta-glucosidase ([2]; cellobiose hydrolysis): mixed | IC50 ([2]; cellobiose hydrolysis, 0.001 g enzyme per liter, pH 5, 50° C., read-out: I50 for CEL3A beta-glucosidase): ~800 µM | Ki ([3]; OPC flavonol-equivalent, read-out: Ki (x-intercept of Dixon plot)): ~180 µM | Ki ([3]; corresponding galloyl constituents, read-out: Ki expressed as galloyl constituents): 1800 µM | Dixon plot linear regression intercept (1/Rate) [3, 5]: 0.018±0.005 | Dixon plot linear regression slope (1/Rate vs inhibitor concentration) [3, 5]: 0.098±0.009 | concentration dependence of inhibition of PCS hydrolysis ([3]; tannic acid 0.1 mM to 1 mM, OPC 0.1 mM to 10 mM, 43 g PCS and 0.25 g enzyme per liter): increasingly inhibitory | effect of pre-incubating AVICEL with inhibitor on hydrolysis [4]: did not affect the hydrolysis
